14 compounds from US20210253528A1, “CHEMICAL COMPOUNDS” (GLAXOSMITHKLINE INTELLECTUAL PROPERTY DEVELOPMENT LIMITED, priority 2018, published 2021) can be followed below.

The structures appear in SMILES notation.

This assay concerns ATF4 translation. Description: ATF4 Cell Based Assay (ATF4 reporter assay, NanoLuc luciferase fused to ATF4 5'-UTR, thapsigargin-induced stress). As to conditions: SH-SY5Y-ATF4-NanoLuc cells, 200 nM thapsigargin, overnight (typically 19 hours); average of a set of two or more experimental runs; read-out: average ATF4 pathway inhibitory activity IC50. The source says:
The ATF4 reporter assay measures the effect of thapsigargin-induced cellular stress on ATF4 expression. For this reporter assay, a stable cell line was created by transfecting SH-SY5Y cells with a plasmid containing the NanoLuc® luciferase gene fused to the 5′-UTR of ATF4, under the control of the CMV promoter. The ATF4 5′-UTR contains two open reading frames which mediate the cellular stress-dependent translation of the reporter gene. Clones stably expressing the reporter construct were isolated and selected based on the luminescence response to thapsigargin and inhibition of this signal by test compounds. Briefly, SH-SY5Y-ATF4-NanoLuc cells were challenged with thapsigargin to determine the stress effect with or without test compounds. Cells were propagated in DMEM/F12 growth media containing 10% FBS (Invitrogen 10999-141) and 0.5 mg/mL geneticin (Corning 30-234-CR). Aliquots of cells were cryopreserved in dialyzed FBS containing 10% DMSO.
Test compounds were prepared in neat DMSO at a concentration of 10 mM. Assay plates were prepared by adding 250 nL of compound stock solution to test wells in a 384-well white tissue culture-treated plate (Greiner 781073). For inhibition curves, compounds were diluted using a three-fold serial dilution and tested at 11 concentrations (10 μM-0.17 nM).
Aliquots of frozen cells were thawed with a 37C water bath. The cells were washed using DMEM/F12 (1:1) (1×) (Gibco 11039-021). The cells were re-suspended in the DMEM/F12 and the suspension was counted. A final suspension of 7.5e5 cells/ml was prepared.
A volume of 20 uL of cell suspension was added to compound plates (15K cells/well). Cells were incubated for 1 hour at 37° C. A volume of 5 μL of 1 uM Thapsigargin solution was added to each well, resulting in a final concentration of 200 nM. Assay plates were then incubated at 37 C overnight, typically for 19 hours.
The measurement of luciferase produced by the ATF4 constructs was measured using Nano-Glo Luciferase Assay reagent, Promega N1150. (The components of the Promega kit are: Nano-Glo® Luciferase Assay Substrate, N113C, Nano-Glo® Luciferase Assay Buffer, N1128.) The buffer is brought to room temperature, and a solution of 50:1 buffer:substrate were prepared. The cell plates were equilibrated to room temperature. A volume of 20 microliters/well of the mixed Nano-Glo reagent were dispensed into assay and control wells. The plates were read on a Viewlux plate reader.
Consider `O=C(COc1ccc(Cl)cc1)NC12CC(COC(=O)Nc3ccc(Cl)cc3)(C1)C2` [Example 1, (3-(2-(4-Chlorophenoxy)acetamido)bicyclo[1.1.1]pentan-1-yl)methyl (4-chlorophenyl)carbamate], for which the concentration for half-maximal inhibition (IC50) was 25 nM.

Turning to `O=C(COc1ccc(Cl)c(F)c1)NC12CC(COC(=O)Nc3ccc(Cl)cc3)(C1)C2` [Example 3, (3-(2-(4-chloro-3-fluorophenoxy)acetamido)bicyclo[1.1.1]pentan-1-yl)methyl (4-chlorophenyl)carbamate], the IC50 is 25 nM.

Take `O=C(COc1ccc(Cl)cc1)NC12CC(CNC(=O)Nc3ccc(Cl)cc3)(C1)C2` [Example 4, 2-(4-Chlorophenoxy)-N-(3-((3-(4-chlorophenyl)ureido)methyl)bicyclo[1.1.1]pentan-1-yl)acetamide]: the IC50 came to 10 nM.

For the compound `O=C(COc1ccc(Cl)cc1)NC12CC(CNC(=S)Nc3ccc(Cl)cc3)(C1)C2` [Example 6a, 2-(4-chlorophenoxy)-N-(3-((3-(4-chlorophenyl)thioureido)methyl)bicyclo[1.1.1]pentan-1-yl)acetamide], the IC50 came to 126 nM.

As for `O=C(COc1ccc(Cl)c(C(F)(F)F)c1)NC12CC(COC(=O)Nc3ccc(Cl)c(F)c3)(C1)C2` [Example 8a, (3-(2-(4-chloro-3-(trifluoromethyl)phenoxy)acetamido)bicyclo[1.1.1]pentan-1-yl)methyl (4-chloro-3-fluorophenyl)carbamate], the IC50 worked out at 79 nM.

In the case of `O=C(COc1ccc(Cl)c(F)c1)NC12CC(COC(=O)Nc3ccc(Cl)c(Cl)c3)(C1)C2` [Example 10, (3-(2-(4-chloro-3-fluorophenoxy)acetamido)bicyclo [1.1.1]pentan-1-yl)methyl (3,4-dichlorophenyl) carbamate], the half-inhibitory concentration (IC50) came out at 25 nM.

With `O=C(COc1ccc(Cl)c(Cl)c1)NC12CC(COC(=O)Nc3ccc(Cl)cc3)(C1)C2` [Example 12, (3-(2-(3,4-dichlorophenoxy)acetamido)bicyclo [1.1.1]pentan-1-yl)methyl (4-chlorophenyl) carbamate], the half-inhibitory concentration (IC50) was 32 nM.

As for `O=C(COc1ccc(F)cc1)NC12CC(COC(=O)Nc3ccc(Cl)c(F)c3)(C1)C2` [Example 14, (3-(2-(4-fluorophenoxy)acetamido)bicyclo [1.1.1]pentan-1-yl)methyl (4-chloro-3-fluorophenyl) carbamate], the 50% inhibitory concentration (IC50) is 79 nM.

Regarding `O=C(COc1ccc(F)c(F)c1)NC12CC(COC(=O)Nc3ccc(F)c(F)c3)(C1)C2` [Example 16, (3-(2-(3,4-difluorophenoxy)acetamido)bicyclo [1.1.1]pentan-1-yl)methyl (3,4-difluorophenyl) carbamate], the IC50 turned out to be 158 nM.

For the compound `O=C(CNc1ccc(Cl)cc1)NC12CC(COC(=O)Nc3ccc(Cl)c(F)c3)(C1)C2` [Example 18, (3-(2-((4-chlorophenyl)amino)acetamido)bicyclo [1.1.1]pentan-1-yl) methyl (4-chloro-3-fluorophenyl carbamate], the IC50 turned out to be 1260 nM.

Turning to `O=C(Nc1ccc(Cl)c(F)c1)OCC12CC(NC(=O)c3ccc4c(c3)OC(F)(F)O4)(C1)C2` [Example 19, (3-(2,2-difluorobenzo[d] [1,3]dioxole-5-carboxamido)bicyclo[1.1.1]pentan-1-yl)methyl (4-chloro-3-fluorophenyl) carbamate], the IC50 is 158 nM.

On to `O=C(COc1ccc(Cl)cc1)NC12CC(CNC(=O)Nc3ccc(Cl)c(Cl)c3)(C1)C2` [Example 22, 2-(4-chlorophenoxy)-N-(3-((3-(3,4-dichlorophenyl)ureido)methyl)bicyclo[1.1.1]pentan-1-yl)acetamide], for which the IC50 came to 6 nM.

Turning to `O=C(COc1ccc(Cl)c(F)c1)NC12CC(CNC(=O)Nc3ccc(Cl)c(Cl)c3)(C1)C2` [Example 23, 2-(4-chloro-3-fluorophenoxy)-N-(3-((3-(3,4-dichlorophenyl)ureido)methyl)bicyclo[1.1.1]pentan-1-yl)acetamide], the IC50 is 8 nM.

With `O=C(COc1ccc(Cl)c(F)c1)NC12CCC(COC(=O)Nc3ccc(Cl)c(F)c3)(C1)C2` [Example 26, (4-(2-(4-chloro-3-fluorophenoxy)acetamido)bicyclo[2.1.1]hexan-1-yl)methyl (4-chloro-3-fluorophenyl) carbamate], the IC50 came to 80 nM.
